The values that follow come from patent publication US8609413B2, “Neurons, astrocytes and oligodendrocytes differentiated from a mammalian pluripotent or neural stem cells exposed to a pyridine deriviative” (Research Development Foundation, priority 2007, dated 2013).

What all share (format): cell-based
The test system of one assay is HS401 human ES cells. In words: Differentiation protocol 2 in HS401 cell line. Conditions: 3 μM vs DMSO. As to the method: (§1) Two different protocols were used to induce neuronal differentiation of human ES cells. In the first protocol, human ES cells were mechanically dissociated into small aggregates and plated on laminin/polyornithine coated six-well plates. Cells were cultured 2 weeks in human SR medium (DMEM F-12 supplemented with 15% knockout serum (Gibco), non-essential amino acids, penicillin and streptomycin), followed by 4 weeks in N2 medium. Compounds were added throughout these first 6 weeks. Subsequently, cells were mechanically dissociated and replated on polyornithine/laminin-coated 6 well plates. Throughout the text, this first differentiation protocol will be referred to as “differentiation protocol 1”. The second differentiation protocol was derived from previously described differentiation conditions (Nat et al., 2007). In the second differentiation protocol, undifferentiated human ES cells were mechanically dissociated into small aggregates and cultured in suspension on low-attachment six-well plates. For the first 4 days, they were cultured in neuronal induction medium (DMEM F-12, N2 supplement, penicillin and streptomycin), which was changed to simple neuronal proliferation medium (DMEM F-12, N2 supplement, 20 ng/ml bFGF, penicillin and streptomycin) for 2 additional days. […]

In assay [1] the test system is human ES cell-derived engineered neural tissues (ENTs). As to the kind of experiment: Three-dimensional neuronal differentiation / engineered neural tissues (ENTs) from human ES cells. Conditions: for number / density of rosettes in ENT: first steps of ENT formation, 1 month old ENTs; for non-neural cells / tissue within ENT (mesenchyma, dark pigmented zones), homogeneity: macroscopic view. The text has this: ENTs are 3-dimensional pieces of tissues derived from embryonic stem cells (ES) which resemble certain layers of human fetal brain.
For three-dimensional neuronal differentiation, 5-10 spheres were generated as described in differentiation protocol 2 and plated on a pre-cut patch of hydrophilic polytetrafluoroethylene (PTFE) membrane (confetti, 6 mm diameter, 0.4 μm, BioCell-Interface, La Chaux-de-Fonds, Switzerland). Next, the membrane was placed in a Millicell®-CM (0.4 μm) Culture Plate Insert (Millipore) on one ml of N2 medium. The medium was changed every 2-3 days. This method has been described for tissue slices previously (Stoppini et al., 1991) and has been recently adapted to ES cell-derived neural tissue by Preynat-Seauve et al. (attached manuscript).
Next, the activity of phenazopyridine was tested on neuronal differentiation in a three-dimensional culture system.

The subject of another assay is H1 human ES cells. As to the kind of experiment: Neuronal differentiation of human ES cells, differentiation protocol 1. Conditions: vs DMSO. As to the method: as §1
Immunostaining quantification. Immunostaining and nuclear staining quantifications were performed using the MetaXpress software (Molecular devices). Total neurite outgrowth was quantified using the neurite outgrowth analysis module, and total cell numbers were quantified with the count nuclei analysis module.
Phenazopyridine enhances neuronal differentiation of human ES cells. […] After 8 weeks of differentiation, the DMSO-treated cell population was highly heterogeneous as assessed by immunostaining for β3-tubulin, nestin, vimentin and GFAP. […] To quantify neuronal differentiation, the inventors chose to measure total neurite outgrowth and divided it by total cell number at different time points in three independent experiments (FIG. 7A).

SMILES strings stand for the structures. Entries after “also recorded” stand apart in the source; their conditions may differ.

For the compound `Nc1ccc(/N=N/c2ccccc2)c(N)n1` [phenazopyridine], the “morphology and dissociation observations in HS401 cell line” value in the assay on HS401 human ES cells is given as “confirmed”. In addition, the “quality of engineered neural tissues (ENTs)” value in assay [1] (3 μM) is “substantially increased the quality”. In addition, the “total number of neural tubes per three-dimensional culture” value in assay [1] (2 weeks and 4 weeks of differentiation, vs control) was “significant increase”. In addition, the “number / density of rosettes in ENT” value in assay [1] is “improved densities of rosettes”; in assay [1] (listed as Phenazopyridine) it was “increased the number of rosettes”. Besides, the “non-neural cells / tissue within ENT (mesenchyma, dark pigmented zones), homogeneity” value was “decreased the incidence of cells differentiating into non-neuronal cells within ENT” in assay [1] (with vs without compound); “displayed less mesenchyma (FIG. 3) and fewer dark pigmented zones; also recorded: more homogenous and appeared to contain a reduced amount of non-neural cells” in assay [1] (with vs without compound, listed as phenazopridine). The “cartilage by immunofluorescent staining of tenascin C in ENTs” value in assay [1] (with vs without compound) is “cartilage was not observed”. The “total neurite outgrowth divided by total cell number (efficiency of differentiation into mature neurons)” value in the assay with H1 human ES cells (3 μM for first 6 weeks, three independent experiments, p=0.045) was “always superior to DMSO-treated cells”. Moreover, the “homogeneity of cell population by immunostaining (β3-tubulin, nestin, vimentin, GFAP)” value in the assay with H1 human ES cells (after 8 weeks of differentiation) was “more homogeneous, most cells being positive for nestin, β3-tubulin, and vimentin, with occasional neuronal networks”. Further, in the assay on H1 human ES cells (after 10 weeks), the “formation of neuronal networks” value is listed as “further neuronal networks formed”.
